Experimental data reported in PMC3819306, “Exploring the Binding Nature of Pyrrolidine Pocket-Dependent Interactions in the Polo-Box Domain of Polo-Like Kinase 1” (PLoS ONE, 2013).
Like-named read-outs stand apart in the source and are kept apart here. Where a SMILES comes first, the peptide text is derived from it.

Key:
[1] = target: T1, PBD of Plk1 (Homo sapiens, UniProt P53350); assay: Fluorescence polarization assay, Plk1 PBD; assay type: binding; conditions: 25 nM 5-carboxyfluorescein-DPPLHSpTAI-OH, Figure 8, read-out: IC50 PBD1
T1 construct: The Plk1 PBD protein (residues 371−603) was purified as previously described; made in house
T1 sequence (P53350 371-603): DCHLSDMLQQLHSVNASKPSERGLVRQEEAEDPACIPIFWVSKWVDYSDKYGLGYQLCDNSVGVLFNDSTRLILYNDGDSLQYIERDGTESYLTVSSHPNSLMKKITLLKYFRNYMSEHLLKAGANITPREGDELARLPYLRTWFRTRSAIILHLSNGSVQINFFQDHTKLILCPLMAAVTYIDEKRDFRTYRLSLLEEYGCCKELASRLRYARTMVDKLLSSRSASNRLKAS
Protocol: Fluorescein-labeled peptides (5-carboxyfluorescein-DPPLHSpTAI-OH, final concentration: 25 nM) were incubated with the PBDs of Plk1, Plk2, and Plk3, respectively (final concentrations of buffer components: 10 mM Tris [pH 8.0], 1 mM EDTA, 50 mM NaCl, and 0.01% Nonidet P-40). Fluorescence polarization was analyzed 10 min after mixing all components in the 384-well format using a Molecular Devides SpectraMax Paradigm Multi-Mode Microplate Detection Platform. All experiments were performed in triplicate.

[2] = target: T2, Plk1 PBD (Homo sapiens, UniProt P53350); assay: ELISA-based Plk1 PBD-binding inhibition assay
T2 construct: Mitotic 293A lysates expressing HA-EGFP-Plk1 were prepared in the TBSN buffer; expressed in transfected cells; host or cells: 293A cells, mitotic lysate
T2 sequence (P53350 whole entry): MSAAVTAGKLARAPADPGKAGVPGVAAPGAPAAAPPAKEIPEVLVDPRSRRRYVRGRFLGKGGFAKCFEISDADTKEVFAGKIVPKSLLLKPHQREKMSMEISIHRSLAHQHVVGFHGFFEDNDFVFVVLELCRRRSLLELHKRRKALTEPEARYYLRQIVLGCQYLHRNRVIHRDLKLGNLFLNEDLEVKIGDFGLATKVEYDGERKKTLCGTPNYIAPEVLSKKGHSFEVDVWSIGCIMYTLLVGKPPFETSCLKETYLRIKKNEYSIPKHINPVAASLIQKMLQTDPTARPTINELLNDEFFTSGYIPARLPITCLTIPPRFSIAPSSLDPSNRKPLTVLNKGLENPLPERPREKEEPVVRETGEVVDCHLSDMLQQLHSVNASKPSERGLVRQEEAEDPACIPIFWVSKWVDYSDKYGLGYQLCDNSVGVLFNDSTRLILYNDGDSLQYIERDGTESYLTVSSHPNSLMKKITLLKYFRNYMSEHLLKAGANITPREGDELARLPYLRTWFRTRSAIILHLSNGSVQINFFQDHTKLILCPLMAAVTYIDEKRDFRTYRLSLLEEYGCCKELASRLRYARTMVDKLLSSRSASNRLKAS
Protocol: The wells were washed once with PBS + 0.05% Tween 20 (PBST), and incubated with 200 µl of PBS + 1% BSA (blocking buffer) for 1 h to prevent the unoccupied sites. […] Next, the plates were washed four times with PBST, and to detect the bound HA-EGFP-Plk1, the plates were incubated for 2 h with 100 µL/well of anti-HA antibody at a concentration of 0.5 µg/mL in the blocking buffer, and then the plates were washed five times. Furthermore, the plates were incubated with 100 µL/well of secondary antibody at a 1:1,000 dilution in the blocking buffer. Afterward, the plates were washed five times with PBST and incubated with 100 µL/well of 3,3′,5,5′-tetramethylbenzidine (TMB) substrate solution (Sigma, St. Louis, MO) until a desired absorbance was achieved. The reactions were terminated by the addition of 1 N H2SO4, and the optical densities were measured at 450 nm using an ELISA plate reader (Molecular Device, Sunnyvale, CA).

[3] = target: T2, Plk1 PBD; set-up: method as in PMID 19597481; conditions: cited from earlier work
[4] = ELISA-based assay, text values referring to Figure 2, read-out: IC50 (Plk1 PBD binding)
[5] = first-phase N-alkylated Pro derivatives, HA-EGFP-Plk1 from mitotic 293A lysates vs immobilized p-T78 peptide, Figure 2, read-out: IC50 (ELISA-based Plk1 PBD-binding assay, Figure 2B)

Row | IC50 [1] [µM] | IC50 [2, 4] [µM] | IC50 [2, 5] [µM] | Molecule | further results
1 | 0.522 | 1.48 | 1.64 | COc1cc(CN2CCC[C@H]2C(=O)N[C@@H](CC(C)C)C(=O)N[C@@H](Cc2c[nH]cn2)C(=O)N[C@@H](CO)C(=O)N[C@H](C(=O)N[C@@H](CCSC)C(N)=O)[C@@H](C)OP(=O)(O)O)cc(OC)c1OC [PL-42, (MeO)3PhCH2PLHSpTM] (HELM PEPTIDE1{[COc1cc(CN2CCC[C@H]2C(=O)[*:2])cc(OC)c1OC].L.H.S.[C[C@@H](OP(=O)(O)O)[C@H](N[*:1])C(=O)[*:2]].M.[am]}$$$$V2.0) | –
2 | – | – | 4.47 | CSCC[C@H](NC(=O)[C@@H](NC(=O)[C@H](CO)NC(=O)[C@H](Cc1c[nH]cn1)NC(=O)[C@H](CC(C)C)NC(=O)[C@@H]1CCCN1Cc1cc2c(cc1Cl)OCO2)[C@@H](C)OP(=O)(O)O)C(N)=O [PL-43] (HELM PEPTIDE1{[O=C([C@@H]1CCCN1Cc1cc2c(cc1Cl)OCO2)[*:2]].L.H.S.[C[C@@H](OP(=O)(O)O)[C@H](N[*:1])C(=O)[*:2]].M.[am]}$$$$V2.0) | –
3 | – | 0.36 | 0.41 | CSCC[C@H](NC(=O)[C@@H](NC(=O)[C@H](CO)NC(=O)[C@H](Cc1c[nH]cn1)NC(=O)[C@H](CC(C)C)NC(=O)[C@@H]1CCCN1CC1CCCCC1)[C@@H](C)OP(=O)(O)O)C(N)=O [PL-49, cyclohexylmethyl-PLHSpTM] (HELM PEPTIDE1{[O=C([C@@H]1CCCN1CC1CCCCC1)[*:2]].L.H.S.[C[C@@H](OP(=O)(O)O)[C@H](N[*:1])C(=O)[*:2]].M.[am]}$$$$V2.0) | –
4 | 0.131 | – | – | CSCC[C@H](NC(=O)[C@@H](NC(=O)[C@H](CO)NC(=O)[C@H](Cc1c[nH]cn1)NC(=O)[C@H](CC(C)C)NC(=O)[C@@H]1CCCN1C(=O)CC12CC3CC(CC(C3)C1)C2)[C@@H](C)OP(=O)(O)O)C(N)=O [PL-55] (HELM PEPTIDE1{[O=C(CC12CC3CC(CC(C3)C1)C2)[*:2]].P.L.H.S.[C[C@@H](OP(=O)(O)O)[C@H](N[*:1])C(=O)[*:2]].M.[am]}$$$$V2.0) | –
5 | – | – | – | CSCC[C@H](NC(=O)[C@@H](NC(=O)[C@H](CO)NC(=O)[C@H](Cc1c[nH]cn1)NC(=O)[C@H](CC(C)C)NC(=O)[C@@H]1CCCN1C(=O)CC1CCCCC1)[C@@H](C)OP(=O)(O)O)C(N)=O [PL-57] (HELM PEPTIDE1{[O=C(CC1CCCCC1)[*:2]].P.L.H.S.[C[C@@H](OP(=O)(O)O)[C@H](N[*:1])C(=O)[*:2]].M.[am]}$$$$V2.0) | IC50 ([2]; first-phase N-acylated cyclohexyl analogues, values printed in picture of Figure 4, read-out: IC50 (ELISA-based Plk1 PBD-binding assay, Figure 4B)): 0.52 µM
6 | – | – | – | LHSpTA | binding to Plk1 PBD compared with PLHSpT [3]: almost as efficiently as the PLHSpT did
